Results published in patent publication US20060211764A1, “Cell activator, process for producing cell activator and apparatus therefor” (priority 2002, published 2006).

What was measured:
cervical malign lymphoma = test: Administration to a human patient, cervical malign lymphoma; format: in vivo; details: person; 20 g/day for 360 days
bladder cancer = test: Administration to human patients, bladder cancer; format: in vivo
tongue cancer = test: Administration to a human patient, tongue cancer; format: in vivo; details: person; 20 g/day for 120 days
[1] = Administration to bovines antepartum; format: in vivo, bovine
Excerpt: From 3 to 5 days before expected date of delivery, 50 g/day of CPL administration was initiated.

lung cancer = test: MIRS values in a patient suffering from lung cancer before and after taking CPL; format: in vivo, human; details: after taking CPL; FIG. 15
Excerpt: In addition, changes in MIRS values in a patient suffering from lung cancer before and after taking CPL.

[2] = system: lactate dehydrogenases (LDH); test: Inhibition of lactate dehydrogenase activity of cancer cells; format: biochemical
Excerpt: Morphologically, it causes vacuolation, and the expansion of the cytoplasm of cells, disintegration and aggregation of the nucleus. […] These are considered to inhibit not only the synthesis of ATP but also the actions of mRNA and be involved in the synthesis of RNA and DNA, and the generation of intracellular energy by acting on the metabolism of the intracellular organelle such as rough-surfaced endoplasmic reticulum, smooth-surfaced endoplasmic reticulum, ribosome, Golgi apparatus, etc., and as a result, controlling the metabolism of the cells, influencing the synthesis of proteins/glycoprotein, intracellular lipid metabolism, and movement and transport of ions. […] Morphologically, in the case that cells end up degenerating, the degeneration generally changes first to the nucleus followed by the cytoplasm.

cancer = test: Several hundreds of patients suffering from cancer taking CPL; format: in vivo, human; details: 10-20 g/day
baldness = test: Spray and oral powder, baldness; format: in vivo, human; details: spray twice a day (10 g in terms of CPL powder) and 10 g/day orally for approximately 50 days
Excerpt: The said spraying agent was sprayed on a bald part of a head.

constipation = test: Bowel movement and constipation during ingestion; format: in vivo, human; details: CPL ingestion; laxative discontinued
uterine/ovarian cancer = test: Administration to a human patient, uterine/ovarian cancer with ileus; format: in vivo
Method: Person, two years ago, the uterus was extirpated, the ovary and fallopian duct were resected and chemotherapy was performed 3 times. During hospitalization, an ileus tube was inserted due to an ileus. Then intestinal liquid and gas were emitted. A central nutrition tube was inserted into the right subclavian vein because oral ingestion was impossible. An artificial anus and urinary duct tube were attached due to a tumor in the left abdomen. […] Cancerous pain ameliorated and the ingestion of solid food from 3/10- 5/10- 7/10-whole porridge was enabled. Discharged from the hospital 3 months later.

mastitis = test: Administration to bovines, mastitis; format: in vivo, bovine
Method: If an antibiotic drug is administered as usual, it takes at least one week after CR to make shipment of milk from the bovines, resulting in loss of 70,000-100,000 yen per bovine. […] Thus, the invention can contribute to dairy managerial economies.

gastric cancer = test: Administration to human patients, gastric cancer; format: in vivo
Excerpt: Patient, gastric cancer had metastasized in the liver; countless cancer cells metastasized and dispersed in the liver.
Gastric cancer was detected as a result of a detailed examination, extirpated soon after the discovery, cancer as large as a head of a fetus was removed. Scattered additionally in the peritoneal cavity: Life expectancy was 3-6 months.
person, metastasized in the pancreas and peritoneum.

endometriosis = test: Administration to human patients, endometriosis; format: in vivo
pneumonia = test: Administration to bovine, pneumonia; format: in vivo; details: 20 g/day for 1-2 days
[3] = system: periodontal disease bacteria; test: Control of proliferation of periodontal disease bacteria
liver cancer = test: Administration to human patients, liver cancer; format: in vivo; details: male
diarrhea = test: Administration to calves, diarrhea; format: in vivo, bovine
Excerpt: Diarrhea frequently occurred in calves when changing to the milk substitute, which is thought to inhibit normal development of the calves. Then farmers may suffer a serious loss.

[4] = system: bone-thinning disease osteoporosis; test: Administration to a human patient, osteoporosis; format: in vivo; details: person; 6 g/day for 180 days
colon cancer = test: Administration to a human patient, colon cancer; format: in vivo; details: person
uterine cervical cancer = format: in vivo, human; details: ingesting CPL
Excerpt: In the case of elderly people whose metabolic functions are weaker, ingesting a large amount of a drug often causes adverse reactions and invites risks. […] This patient was taking a strong painkiller when fighting against cancer, which could be replaced by a common painkiller after taking CPL.

pancreatic cancer = test: Administration to a human patient, pancreatic cancer; format: in vivo; details: 30 g/day; in approximately 1 and a half months
Excerpt: In approximately 1 and a half months, the patient recovered.

[5] = Examinations after ingestion by healthy subjects and long-term patients; format: in vivo, human

## Cyclic Poly-lactate [CPL]
Cervical malign lymphoma
  outcome of cervical malign lymphoma: cured
Bladder cancer; male, resection performed 5 times, 20-30 g/day for 50 days
  examination findings and recurrence of bladder cancer: no abnormal findings from examinations, nor a recurrence
Bladder cancer; person, 40-50 g/day for 270 days
  course of bladder cancer: improved from the terminal stage
Tongue cancer
  outcome of tongue cancer: completely disappeared
[1]; 50 g/day from 3 to 5 days before expected date of delivery
  mastitis prevention: confirmed to play a role in mastitis prevention
[1]; 50 g/day initiated 5 days before expected date of delivery
  delivery of calves: smoothly
Lung cancer
  MIRS values in patient suffering from lung cancer: increased significantly
[2]
  activity of lactate dehydrogenases (LDH): inhibits
cancer
  findings of ameliorated adverse reactions, macrobiotic effects and suggestion of a cure: observed in the majority
baldness
  hair growth on bald part of head: hair growth is achieved
constipation
  defecation of patients suffering from constipation: improved defecation
uterine/ovarian cancer; person with ileus, 4-6 g/day
  excretion of gas, defecation and amount of urine: increased
uterine/ovarian cancer; person, 7 days later
  ileus symptoms: negative
uterine/ovarian cancer; person, discharged 3 months later
  recurrence of ileus symptoms: No recurrent ileus symptoms
uterine/ovarian cancer; person, oral ingestion 15-20 g/day
  cancerous pain: ameliorated
mastitis; oral, 50 g of CPL (powder) dissolved in water
  response of mastitis: Complete response
mastitis; treatment using CPL alone
  milking from the other normal udders during treatment: available
Gastric cancer; male, gastric cancer metastasized in the liver, CPL for 2 weeks
  cancer blocks metastasized in the liver: necrotized
Gastric cancer; person, metastasized in pancreas and peritoneum, 30 g/day for 150 days
  course of terminal inoperable gastric cancer: progressing satisfactorily
Gastric cancer; scattered in peritoneal cavity, life expectancy 3-6 months, 10 g/day for 5 months
  recurrence after extirpation of gastric cancer: no sign of a recurrence
endometriosis; endometriosis patients, in the majority of the patients
  CA125 of tumor marker: improves
endometriosis; person, 10 g/day orally
  symptoms of menorrhagia: ameliorated
endometriosis; person, 10 g/day orally, next menstruation
  menstrual pain: ameliorated
pneumonia
  symptom of pneumonia: improved
[3]
  controlling the proliferation of periodontal disease bacteria: effective
Liver cancer; 20 g/day for 150 days
  outcome of liver cancer: cured
Liver cancer; 20 g/day for 210 days
  outcome of liver cancer originated from liver cirrhosis: cured
diarrhea; 20-30 g/day
  outcome of diarrhea in calves changing to milk substitute: recovered completely
diarrhea; 20 g/day for the first 4-5 days
  diarrhea in calves that took CPL (prevention): spontaneously cured
diarrhea; calves, 20-30 g/day
  time to complete recovery after CPL administration: approximately 3 days
[4]
  bone density: increased
Colon cancer; 20 g/day for 150 days, in 2 weeks
  colon tumors of 2 cm in size (Stage 2-3): disappeared
Colon cancer; examination 5 months later
  examination for colon cancer: No abnormalities were found
Uterine cervical cancer
  pain of patients suffering from advanced cancer: diminishes the pain rapidly
Pancreatic cancer
  outcome of patient with pancreatic cancer considered incurable: recovered
[5]; healthy subjects, 6 g/day
  effect on results of examinations (physical findings, hematological/biochemical tests, urine and faeces): not to affect
[5]; human, in vivo
  effect on biogenic basic functions (appetite, sleep, changes in weight, libido): no effect
[5]; patients who have taken 6 g/day for 3-5 years
  abnormal findings from examinations: no abnormal findings at all
